For assay [1], the system named is isolated pancreatic islets from mice. Description: Glucose-stimulated insulin secretion (GSIS) in isolated pancreatic islets. It is filed as cell-based, mouse. Particulars: AOL 10 and 20 μM, 1 hour. The protocol:
Pancreatic islets were isolated using the collagenase digestion method. Briefly, pancreas was inflated with Hanks solution containing 0.33 mg/mL of collagenase (Sigma-Aldrich), 5.6 mM glucose and 1% bovine serum albumin, pH 7.35, removed and kept at 37° C. for 6-9 minutes. After tissue digestion and exocrine removal by three consecutive washes, the islets were manually collected, under a binocular magnifier. Islets were left recovering from digestion by culturing for 20-24 hours in RPMI-1640 medium containing 11 mM glucose (Invitrogen, Calif., USA) and supplemented with 2 mM glutamine, 200 IU/mL penicillin, 200 μg/mL streptomycin and 8% fetal bovine serum stripped with charcoal-dextran (Invitrogen).
For each static GSIS experiment, islets from two mice were first incubated for 2 hours at 37° C. in 3 mL Krebs-bicarbonate buffer solution (in mM): […], 2 HEPES and 3 glucose, equilibrated with a mixture of 95% O2:5% CO2, pH 7.4. […] Insulin secretion in each well was calculated as ng of insulin per islet and per hour of incubation, and then expressed as percentage of insulin secretion in 11 mM glucose vehicle group, which was considered 100%.

Assay [2] deals with isolated perfused rat heart. Nature of the assay: Global ischaemia/reperfusion of isolated perfused (Langendorff) rat heart. Particulars: 10 μM AOL pretreatment, 30 min ischaemia. Here is the method: The consequences of 30 minutes' global ischaemia followed by 120 minutes' reperfusion (FIG. 11) on contractility and tissue viability were studied on isolated perfused rat heart pretreated or not (control vehicle) with 10 μM AOL.
All procedures conformed to the UK Animals (Scientific Procedures) Act 1986 and the Guide for the Care and Use of Laboratory Animals published by the National Institutes of Health (NIH Publication No. 85-23. revised 1996). Male Wistar rats (250-300 g) were anesthetized by 3% isoflurane, heparinized and euthanized by a lethal IP injection of pentobarbital (130 mg/kg). Hearts (˜0.95 g of fresh weight) were rapidly harvested and placed into ice cold Krebs-Henseleit buffer containing (in mmol/L): NaCl 118, NaHCO3 25, KCl 4.8, KH2PO4 1.2, MgSO4 1.2, glucose 11 and CaCl2 1.8; gassed with 95% O2/5% CO2 at 37° C. (pH 7.4). Langendorff heart perfusions were performed (Garlid, K. D. et al., 2006. Am. J. Physiol. Heart Circ. Physiol. 291(1):H152-60) and contractility was assessed by continuous measurement of the rate pressure product (RPP) thanks to a balloon placed in the left ventricle and connected to a pressure transducer. Hearts were perfused in a constant flow mode (12 mL/min). […]

Assay [3] concerns Sod2-KO mice. Description: Sod2-KO mice: lifespan, heart SDH activity, liver Oil Red O staining. The class given is in vivo, mouse. The source says:
Mice deficient in mitochondrial Mn-Superoxide Dismutase (Sod2-KO) on a CD1-background were used. This genetic alteration leads to an adverse phenotype and the death of animals at an average of 8 days old. Mitochondrial superoxide dismutase is a free radical scavenging enzyme which transforms superoxide (highly reactive) into hydrogen peroxide (less reactive), that could then cross mitochondrial membranes and be detoxified by matrix and cytosolic anti-oxidant systems. The aim of this study was to test if AOL could rescue the Sod2-KO phenotype through its activity on IQ superoxide production.
After birth, pups were genotyped (3 day-old) and the litter size was reduced to 6 pups per cage. Animals were then treated (AOL in Kolliphor®—5 mg/kg) or not (Kolliphor® only, noted KOL below). […] Two studies were conducted on two different generations from the same parents: lifespan; and succinate dehydrogenase activity in heart (SDH) and Oil Red O staining in liver. Animals were weighed and injected (intraperitoneal) daily.
Succinate dehydrogenase activity is a marker of superoxide in the mitochondrial matrix. Thus, a lack of SOD2 is associated with a decrease of SDH activity in heart. The aim of this experiment was to test whether or not AOL could restore SDH activity in KO mice.
However, the direct link between superoxide/hydrogen peroxide production and liver lipid accumulation is not established. The aim of the study was to test the potency of AOL to prevent liver lipid accumulation in Sod2-KO mice.
Animals were injected once a day from 3 days old until their death.
In this study, animals were treated daily (5 mg/kg) from day 3 to day 5. Heart and liver were harvested at day 6.

In the case of `COc1ccc(-c2cc(=S)ss2)cc1` [AOL, 5-(4-methoxyphenyl)-3H-1,2-dithiole-3-thione], in assay [1], the “GSIS increase as compared to the 11 mM glucose vehicle group” value is 65-75%. For the same molecule, the “infarcted tissue rescued (TTC staining)” value in assay [2] (120 min reperfusion) is given as “about 50%”. Also, in assay [2] (after 2 hours of reperfusion), the “heart contractility (rate pressure product, RPP) versus control hearts” value is recorded as “about three times higher”. For the same molecule, in assay [3] (5 mg/kg daily day 3 to day 5), the “liver lipid droplets density (Oil Red O)” value was “decreased” and the “liver total lipid area (Oil Red O)” value is on record as “able to restore”. The “SDH activity in heart” value in assay [3] (5 mg/kg daily day 3 to day 5, not restored to WT levels) is given as “very slight increase”. Also, in assay [3] (5 mg/kg ip daily), the “lifespan extension as compared to untreated mice” value is reported as “up to 2 days”; the “median lifespan and maximal lifespan” value is “slightly improved”. Besides, the “lower body weight and body weight gain of KO mice” value in assay [3] (5 mg/kg ip daily, day 8 to 12) is listed as “tends to alleviate”.
